Eight molecules from patent US20210220356A1, “DIHYDROPYRIMIDINE DERIVATIVES AND USES THEREOF IN THE TREATMENT OF HBV INFECTION OR OF HBV-INDUCED DISEASES” (Janssen Sciences Ireland Unlimited Company, priority 2018, published 2021) can be followed below.

Where two headings read alike, the source gives them in different places.

The test system of one series is HBV. Kind of series: HBV inhibitory activity in HepG2.2.15 cells (HBV DNA in culture medium by q-PCR). The class given is cell-based. Conditions: HepG2.2.15 cells, 40,000 cells/well, 6 days of compound treatment, HBV DNA in culture medium by q-PCR, highest concentration 10 uM, read-out: EC50. The gist of the method: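 HepG2.2.15 cells (40,000/well, 2% FBS) treated 6 days with compounds, medium refreshed once; 8 points, 3-fold dilution, top 10 uM. Secreted HBV DNA in medium extracted and quantified by q-PCR; EC50 calculated from dose-response.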

Series [1] is described as follows: Cytotoxicity determination in HepG2.2.15 cells (CCK-8). In kind it is cell-based. Conditions: human, HepG2.2.15 cells, HepG2.2.15 cells, 5,000 cells/well, 6 days of compound treatment, CCK-8 absorbance 450 nm, highest concentration 100 uM. The method in brief:
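HepG2.2.15 cells, 5,000/well in 2% FBS medium, treated 6 days with compound (medium refreshed midway), 8-point 3-fold dilutions from 100 uM top. Viability read by CCK-8, 2.5 h at 37° C, absorbance 450 nm with 630 nm reference; CC50 from curve fitting.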

Where [2] appears, read: Hepatitis B virus, HepG2.2.15, 144 h.

A word on the EC50: it is the concentration that produces a half-maximal response. As usually defined, the CC50 is the concentration that lowers cell viability or growth by half. A low value points to harm at low concentration. Turning to `CCOC(=O)C1=C(C2Cc3cn(CCC(=O)O)nc3C(C)(C)C2)NC(c2nccs2)=NC1c1ccc(F)c(F)c1Cl` (stereo not shown) [Compound 55a, 3-(5-(6-(2-chloro-3,4-difluorophenyl)-5-(ethoxycarbonyl)-2-(thiazol-2-yl)-3,6-dihydropyrimidin-4-yl)-7,7-dimethyl-4,5,6,7-tetrahydro-2H-indazol-2-yl)propanoic acid], the EC50 in the series with HBV is 81 nM. For the same molecule, the half-maximal cytotoxic concentration (CC50) at 6 days in series [1] worked out at 8500 nM.

`COC(=O)C1=C(C2CCc3nn(CCC(=O)O)cc3C2)NC(c2nccs2)=NC1c1ccc(F)cc1C` (stereo not shown) [Compound 80c, 3-(5-(6-(4-fluoro-2-methylphenyl)-5-(methoxycarbonyl)-2-(thiazol-2-yl)-3,6-dihydropyrimidin-4-yl)-4,5,6,7-tetrahydro-2H-indazol-2-yl)propanoic acid]: the concentration giving a half-maximal response (EC50) in the series on HBV (setting [2]) worked out at 72.4 nM. This molecule showed a CC50 at 6 days in series [1] of 33200 nM.

Turning to `COC(=O)C1=C(C2CCc3nn(CCC(=O)O)cc3C2)NC(c2nccs2)=NC1c1ccc(F)c(F)c1Br` (single isomer, unassigned) [Compound 46a, 3-(5-(6-(2-Bromo-3,4-difluorophenyl)-5-(methoxycarbonyl)-2-(thiazol-2-yl)-3,6-dihydropyrimidin-4-yl)-4,5,6,7-tetrahydro-2H-indazol-2-yl)propanoic acid], the half-maximal effective concentration (EC50) in the series with HBV was 219 nM. The 50% cytotoxic concentration (CC50) at 6 days in series [1] is 17300 nM.

`CCOC(=O)C1=C(C2CCc3nc(CCC(=O)O)sc3C2)NC(c2nccs2)=NC1c1ccc(F)c(F)c1Cl` (single isomer, unassigned) [Compound 60b, 3-(6-(6-(2-Chloro-3,4-difluorophenyl)-5-(ethoxycarbonyl)-2-(thiazol-2-yl)-3,6-dihydropyrimidin-4-yl)-4,5,6,7-tetrahydrobenzo[d]thiazol-2-yl)propanoic acid]: the 50% effective concentration (EC50) in the series with HBV (setting [2]) amounted to 24.1 nM. In series [1], this molecule came in with a 50% cytotoxic concentration (CC50) at 6 days of 3400 nM.

For the molecule `CCOC(=O)C1=C(C2CCc3nn(CCC(=O)O)cc3C2)NC(c2ncc(F)cc2F)=NC1c1ccc(F)c(F)c1Cl` (single isomer, unassigned) [Compound 43b, 3-(5-(6-(2-Chloro-3,4-difluorophenyl)-2-(3,5-difluoropyridin-2-yl)-5-(ethoxycarbonyl)-3,6-dihydropyrimidin-4-yl)-4,5,6,7-tetrahydro-2H-indazol-2-yl)propanoic acid], the 50% effective concentration (EC50) in the series with HBV stood at 125 nM. For the same molecule, the CC50 at 6 days in series [1] is 31300 nM.

Turning to `CCOC(=O)C1=C(C2CCc3nn(CCC(=O)O)cc3C2)NC(c2nccs2)=NC1c1ccc(F)cc1Cl` (single isomer, unassigned) [Compound 37b, 3-(5-(6-(2-Chloro-4-fluorophenyl)-5-(ethoxycarbonyl)-2-(thiazol-2-yl)-3,6-dihydropyrimidin-4-yl)-4,5,6,7-tetrahydro-2H-indazol-2-yl)propanoic acid], the EC50 in the series on HBV was determined as 175 nM. The same molecule gave a CC50 at 6 days in series [1] of 19600 nM.

Turning to `CCOC(=O)C1=C(C2CCc3cn(CCC(=O)O)c(C#N)c3C2)NC(c2nccs2)=NC1c1ccc(F)c(F)c1Cl` (stereo not shown) [Compound 63, 3-(6-(6-(2-Chloro-3,4-difluorophenyl)-5-(ethoxycarbonyl)-2-(thiazol-2-yl)-3,6-dihydropyrimidin-4-yl)-1-cyano-4,5,6,7-tetrahydro-2H-isoindol-2-yl)propanoic acid], the concentration for a half-maximal effect (EC50) in the series with HBV (setting [2]) is 436 nM. The molecule further returned a CC50 at 6 days in series [1] of 5100 nM.

As for `COC(=O)C1=C(C2CCc3nn(CCC(=O)O)cc3C2)NC(c2nccs2)=NC1c1cccc(F)c1Cl` (single isomer, unassigned) [Compound 44b, 3-(5-(6-(2-Chloro-3-fluorophenyl)-5-(methoxycarbonyl)-2-(thiazol-2-yl)-3,6-dihydropyrimidin-4-yl)-4,5,6,7-tetrahydro-2H-indazol-2-yl)propanoic acid], in the series on HBV, the EC50 was found to be 383 nM. This molecule also displayed a CC50 at 6 days in series [1] of 21000 nM.
